{
  "source": "patent US20190070170A1",
  "about": "“METHOD OF S[…]-1” (Macau University of Science and Technology, priority 2017, published 2019)",
  "key": {"[1]": {"tested_on": "mPGES-1", "test": "mPGES-1 protein expression in IL-1β-stimulated A549 cells (western blotting)", "format": "cell-based", "settings": "IL-1β with SIN or DEX for 48 h", "method": "RAW264.7 and A549 cell lines were obtained from American Type Culture Collection (ATCC, Manassas, Va., USA) and maintained in DMEM (RAW264.7) or 1640 (A549) medium containing 10% FBS (Gibco-BRL, Grand Island, N.Y., USA) and antibiotics at 37° C. in a humidified atmosphere containing 5% CO2. RAW264.7 cells were plated in 6-well plates at a density of 4×10^5 cells and incubated for 24 h, then the cells were pretreated with different concentrations of SIN for 1 h before stimulating with LPS (100 ng/ml). A549 cells were seeded in 6-well plates at a density of 1×10^5 cells and incubated for 24 h, followed by pretreatment with SIN. A549 cells were then stimulated by IL-1β (1 ng/ml).\nWhole-cell and nuclear proteins were obtained using RIPA lysis buffer (CST, Boston, Mass., USA) and Nuclear and Cytoplasmic Extraction Reagents kit from Thermo Scientific (Asheville, N.C., USA), respectively. For immunoblotting, proteins from whole-cell, cytoplasm, nuclear, and microsomal fractions were separated on SDS-PAGE, then transferred onto a nitrocellulose membrane from GE Healthcare Life Sciences (Buckinghamshire, UK), and incubated with 5% skimmed milk at room temperature for 1 h. […] The levels of protein expression were measured using Odyssey v3.0 software from Li-COR (Lincoln, Nebr., USA)."}, "[2]": {"tested_on": "COX-2", "test": "COX-2 protein expression in hind paws of CIA DBA/1 mice", "format": "in vivo", "settings": "SIN 100 mg/kg i.p.", "method": "Female DBA/1 mice (8-9 weeks old) were purchased from Shanghai SiLaike (SLAC) Laboratory Animal Company (Shanghai, China) and fed with a chow diet and water at room temperature. Equal volume of complete Freuend's adjuvant (CFA) and Bovine Type II Collagen (CII) were mixed and emulsified using a homogenizer (13,000 rpm) on ice. On day 0, DBA/1 mice were immunized by injecting 50 μl of CII in CFA in the tail, approximately 2 cm from the base of the tail. […] The incidence of joint swelling in each group was recorded every two days since drug treatment. […]\nFrozen paws were pulverized in liquid nitrogen using a stainless steel mortar and pestle, then re-suspended in 8 volumes of ice-cold PBS from Invitrogen (San Diego, Calif., USA) with 2.6 mM DTT from Promega (Madison, Wis., USA) and 2×Complete Protease Inhibitor mixture from Roche (Mannheim, Germany), and homogenized on ice bath using a tissue homogenizer from T25 digital, IKA (Stanfen, Germany) at 10,000 rpm/min for 5 min. […] The protein concentrations were measured using a Bio-Rad protein assay kit (Hercules, Calif., USA). […]\n(§1) Whole-cell and nuclear proteins were obtained using RIPA lysis buffer (CST, Boston, Mass., USA) and Nuclear and Cytoplasmic Extraction Reagents kit from Thermo Scientific (Asheville, N.C., USA), respectively. […] The levels of protein expression were measured using Odyssey v3.0 software from Li-COR (Lincoln, Nebr., USA)."}, "[3]": {"tested_on": "p65", "test": "Nuclear translocation of p65 in LPS-stimulated rat peritoneal macrophages (immunofluorescence, western blotting)", "format": "cell-based", "settings": "640 μM SIN 1 h, LPS 30 min", "method": "Whole-cell and nuclear proteins were obtained using RIPA lysis buffer (CST, Boston, Mass., USA) and Nuclear and Cytoplasmic Extraction Reagents kit from Thermo Scientific (Asheville, N.C., USA), respectively. For immunoblotting, proteins from whole-cell, cytoplasm, nuclear, and microsomal fractions were separated on SDS-PAGE, then transferred onto a nitrocellulose membrane from GE Healthcare Life Sciences (Buckinghamshire, UK), and incubated with 5% skimmed milk at room temperature for 1 h. Membranes were incubated with the primary antibodies including cPLA2, p-cPLA2, COX-1 and p65 (all dilutions 1:1000), and COX-2 (dilution 1:500) from Cell Signaling Technology (Boston, Mass., USA); and mPGES-1 (dilution 1:200) from Cayman Chemical (Ann Arbor, Mich., USA); and β-actin (dilution 1:1000) from Santa Cruz Biotechnology (Santa Cruz, Calif., USA); and TBP (dilution 1:200) was from Abcam (Cambridge, UK) at 4° C. overnight and the band was visualized by incubating the anti-rabbit or anti-mouse secondary antibodies (dilution 1:10,000) from Li-COR (Lincoln, Nebr., USA) at room temperature for 1 h. The levels of protein expression were measured using Odyssey v3.0 software from Li-COR (Lincoln, Nebr., USA).\nRAW 264.7 cells were seeded on glass coverslip at a density 2.0×10^5 cells/well in 6-well plates and incubated for 24 h. […]"}, "[4]": {"tested_on": "iNOS", "test": "iNOS protein level in LPS-stimulated rat peritoneal macrophages (immunoblotting)", "format": "cell-based", "settings": "pretreatment 1 h, LPS 1 μg/ml 24 h", "method": "Sprague-Dawley (SD) rats from the University of Hong Kong were housed in cages with free access to food and water. Peritoneal macrophages of SD rats were isolated as described in Liu J. et al., Pharmacological research 2016, 111:303-315. Briefly, untreated rats were sacrificed and after laparotomy, about 50 ml cold sterile Hank's balanced salt solution (HBSS) was used to lavage the peritoneal cavity at twice, and then the peritoneal lavage fluid was collected and centrifuged at 1500 rpm for 10 min. The cell pellets was suspended at a density 1.5×10^6 cells/ml in pre-hearted DMEM medium with 10% heat-inactivated FBS, penicillin G (100 units/ml), streptomycin ([…]), and L-glutamine (2 mM), followed by seeding in 6-well plates at a density of 4.5×10^6 cells and incubation for 2 h. Then the medium were discarded to remove the non-adherent cells. The adherent cells were further washed for two times with pre-heated DMEM medium to remove floating cells. Next, cells were pre-treated with various concentration of SIN for 1 h, followed by stimulation with LPS (1 μg/ml).\nas §1"}},
  "data": [
    {"compound": "COC1=C[C@@H]2[C@@H]3Cc4ccc(OC)c(O)c4[C@]2(CCN3C)CC1=O", "note": "[SIN, sinomenine]", "values": [
      {"measurement": "mPGES-1 protein expression", "setting": "[1]", "value": "significantly and dose-dependently inhibited"},
      {"measurement": "COX-2 expression in paw tissues", "setting": "[2]", "value": "did not produce observable changes"},
      {"measurement": "nuclear translocation of p65", "setting": "[3]", "value": "does not produce observable inhibitory effects"},
      {"measurement": "iNOS expression", "setting": "[4]", "value": "significantly inhibited"}
    ]}
  ]
}
